From US20100267561A1, “HERBICIDAL PYRIDAZINONE DERIVATIVES” (priority 2007, published 2010)
Like-named read-outs stand apart in the source and are kept apart here.

Columns and labels:
[1] = system: johnsongrass (Sorghum halepense); assay: Test B pre-/postemergence plant response; format: in vivo; details: for pest or weed control at 31 g/ha / pest or weed control at 62 g/ha / pest or weed control at 125 g/ha / pest or weed control at 250 g/ha: Sorghum halepense, read-out: Plant response rating, Johnsongrass
In short: (§1)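 Visual scoring from 0 (no effect) to 100 (complete control) against untreated controls was done 13 to 15 days after greenhouse treatment. Chemicals were formulated in a surfactant-containing non-phytotoxic solvent and applied to soil preemergence or to 1- to 4-leaf (2-18 cm) plants postemergence.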

[2] = system: surinam grass (Brachiaria decumbens); assay: Test B pre-/postemergence plant response; format: in vivo; details: for pest or weed control at 31 g/ha / pest or weed control at 62 g/ha / pest or weed control at 125 g/ha / pest or weed control at 250 g/ha: Urochloa decumbens, read-out: Plant response rating, Surinam Grass
In short: as §1

[3] = 8 g ai/ha, postemergence, 0-100 scale
[4] = 16 g ai/ha, postemergence, 0-100 scale
[5] = Preemergence, 8 g ai/ha, scale 0 to 100 (0 no effect, 100 complete control)
[6] = Preemergence, 16 g ai/ha, scale 0 to 100
[7] = post-emergence, Postemergence, 31 g ai/ha, scale 0 to 100
[8] = post-emergence, Postemergence, 62 g ai/ha, scale 0 to 100, 0 no effect, 100 complete control
[9] = pre-emergence, Preemergence, 31 g ai/ha, scale 0 to 100 (0 no effect, 100 complete control)
[10] = pre-emergence, Preemergence, 62 g ai/ha, 0 to 100 scale, 0 no effect, 100 complete control
[11] = post-emergence, Postemergence, 31 g ai/ha, scale 0 to 100, 0 no effect, 100 complete control
[12] = post-emergence, Postemergence, 62 g ai/ha, scale 0 to 100
[13] = post-emergence, Postemergence, 125 g ai/ha, scale 0 to 100
[14] = post-emergence, Postemergence, 250 g ai/ha, scale 0 to 100
[15] = pre-emergence, Preemergence, 31 g ai/ha, 0 to 100 scale, 0 no effect, 100 complete control
[16] = pre-emergence, Preemergence, 62 g ai/ha, scale 0 to 100
[17] = pre-emergence, Preemergence, 125 g ai/ha, scale 0 to 100
[18] = pre-emergence, Preemergence, 250 g ai/ha, scale 0 to 100
[19] = Postemergence, 31 g ai/ha, scale 0 to 100, 0 no effect, 100 complete control
[20] = Postemergence, 62 g ai/ha, scale 0 to 100
[21] = Preemergence, 31 g ai/ha, 0 to 100 scale, 0 no effect, 100 complete control
[22] = Preemergence, 62 g ai/ha, scale 0 to 100
[23] = Preemergence, 125 g ai/ha, scale 0 to 100
[24] = Preemergence, 250 g ai/ha, scale 0 to 100
[25] = Postemergence, 125 g ai/ha, scale 0 to 100
[26] = Postemergence, 250 g ai/ha, scale 0 to 100
[27] = Preemergence, 8 g ai/ha, scale 0 to 100
[28] = Postemergence, 31 g ai/ha, scale 0 to 100
[29] = Postemergence, 62 g ai/ha, scale 0 to 100, 0 no effect, 100 complete control
[30] = Preemergence, 31 g ai/ha, scale 0 to 100 (0 no effect, 100 complete control)
[31] = Preemergence, 62 g ai/ha, 0 to 100 scale, 0 no effect, 100 complete control
[32] = Postemergence, 16 g ai/ha, scale 0 to 100

| Compound | Johnsongrass plant response rating [1, 3] | Johnsongrass plant response rating [1, 4] | Johnsongrass plant response rating [1, 6] | pest or weed control at 31 g/ha [1, 7] | pest or weed control at 62 g/ha [1, 8] | pest or weed control at 31 g/ha [1, 9] | pest or weed control at 62 g/ha [1, 10] | Surinam Grass plant response rating [2, 3] | Surinam Grass plant response rating [2, 4] | Surinam Grass plant response rating [2, 6] | pest or weed control at 31 g/ha [2, 7] | pest or weed control at 62 g/ha [2, 8] | pest or weed control at 31 g/ha [2, 9] | pest or weed control at 62 g/ha [2, 10] | Plant response rating, Johnsongrass [1, 19] | Plant response rating, Johnsongrass [1, 21] | Plant response rating, Johnsongrass [1, 22] | Plant response rating, Johnsongrass [1, 24] | Plant response rating, Surinam Grass [2, 21] | Plant response rating, Surinam Grass [2, 22] | also measured |
| --- | --- | --- | --- | --- | --- | --- | --- | --- | --- | --- | --- | --- | --- | --- | --- | --- | --- | --- | --- | --- | --- |
| Cc1cc(-c2ccc(Br)cc2)nn1-c1c(O)cn[nH]c1=O [Compound 78, 4-[3-(4-bromophenyl)-5-methyl-1H-pyrazol-1-yl]-5-hydroxy-3(2H)-pyridazinone] | 75 | 100 | 80 | 100% | 100% | 95% | 100% | 98 | 100 | 95 | 100% | 100% | 100% | 100% | – | – | – | – | – | – | Johnsongrass plant response rating [1, 5]: 60; Surinam Grass plant response rating [2, 5]: 95 |
| Cc1cc(-c2ccc(Br)cc2)nn1-c1c(OC(=O)C2CC2)cnn(C(=O)C2CC2)c1=O [Compound 80, 5-[3-(4-bromophenyl)-5-methyl-1H-pyrazol-1-yl]-1-(cyclopropylcarbonyl)-1,6-dihydro-6-oxo-4-pyridazinyl cyclopropanecarboxylate] | 75 | 90 | 65 | 95% | 100% | 80% | 100% | 95 | 100 | 65 | 100% | 100% | 98% | 100% | – | – | – | – | – | – | Johnsongrass plant response rating [1, 5]: 60; Surinam Grass plant response rating [2, 5]: 0 |
| Cc1cc(-c2ccc(C(F)(F)F)cc2)nn1-c1c(O)cnn(C)c1=O [Compound 1, 5-hydroxy-2-methyl-4-[5-methyl-3-[4-(trifluoromethyl)phenyl]-1H-pyrazol-1-yl]-3(2H)-pyridazinone] | – | – | – | – | – | – | – | – | – | – | – | – | – | – | – | – | – | – | – | – | pest or weed control at 31 g/ha [1, 11]: 60%; pest or weed control at 62 g/ha [1, 12]: 90%; pest or weed control at 125 g/ha [1, 13]: 100%; pest or weed control at 250 g/ha [1, 14]: 100%; pest or weed control at 31 g/ha [1, 15]: 90%; pest or weed control at 62 g/ha [1, 16]: 95%; pest or weed control at 125 g/ha [1, 17]: 100%; pest or weed control at 250 g/ha [1, 18]: 100%; pest or weed control at 31 g/ha [2, 11]: 100%; pest or weed control at 62 g/ha [2, 12]: 100%; pest or weed control at 125 g/ha [2, 13]: 100%; pest or weed control at 250 g/ha [2, 14]: 100%; pest or weed control at 31 g/ha [2, 15]: 100%; pest or weed control at 62 g/ha [2, 16]: 100%; pest or weed control at 125 g/ha [2, 17]: 100%; pest or weed control at 250 g/ha [2, 18]: 100% |
| Cc1cc(-c2ccc(Br)cc2)nn1-c1c(OC(=O)OC(C)C)cnn(C)c1=O [Compound 6] | – | – | – | – | – | – | – | – | – | – | – | – | – | – | 0 | 60 | 90 | 100 | 98 | 98 | Plant response rating, Johnsongrass [1, 20]: 0; Plant response rating, Johnsongrass [1, 23]: 95; Plant response rating, Surinam Grass [2, 19]: 100; Plant response rating, Surinam Grass [2, 20]: 100; Plant response rating, Surinam Grass [2, 25]: 100; Plant response rating, Surinam Grass [2, 26]: 100; Plant response rating, Surinam Grass [2, 23]: 100; Plant response rating, Surinam Grass [2, 24]: 100 |
| Cc1nn(C)c(=O)c(-n2nc(-c3ccc(C(F)(F)F)cc3)cc2C)c1O [Compound 75, 5-hydroxy-2,6-dimethyl-4-[5-methyl-3-[4-(trifluoromethyl)phenyl]-1H-pyrazol-1-yl]-3(2H)-pyridazinone] | 75 | 80 | 75 | 98% | 100% | 85% | 95% | 60 | 70 | 50 | 75% | 85% | 80% | 98% | – | – | – | – | – | – | Johnsongrass plant response rating [1, 27]: 0; Surinam Grass plant response rating [2, 27]: 45 |
| Cc1cc(-c2ccc(Br)cc2)nn1-c1c(O)cnn(C)c1=O [Compound 4] | – | – | – | – | – | – | – | – | – | – | – | – | – | – | 80 | 0 | 30 | 100 | 100 | 100 | Plant response rating, Johnsongrass [1, 25]: 100; Plant response rating, Johnsongrass [1, 23]: 100; Plant response rating, Surinam Grass [2, 19]: 100; Plant response rating, Surinam Grass [2, 20]: 100; Plant response rating, Surinam Grass [2, 25]: 100; Plant response rating, Surinam Grass [2, 26]: 100; Plant response rating, Surinam Grass [2, 23]: 100; Plant response rating, Surinam Grass [2, 24]: 100 |
| CCc1cc(-c2ccc(C(F)(F)F)cc2)nn1-c1c(O)cnn(CC)c1=O [Compound 67] | 80 | 98 | 90 | – | – | – | – | 70 | 85 | 0 | – | – | – | – | – | – | – | – | – | – | Plant response rating, Johnsongrass [1, 28]: 100; Plant response rating, Johnsongrass [1, 29]: 100; Plant response rating, Johnsongrass [1, 30]: 100; Plant response rating, Johnsongrass [1, 31]: 100; Johnsongrass plant response rating [1, 27]: 70; Plant response rating, Surinam Grass [2, 28]: 100; Plant response rating, Surinam Grass [2, 29]: 100; Plant response rating, Surinam Grass [2, 30]: 0; Plant response rating, Surinam Grass [2, 31]: 55; Surinam Grass plant response rating [2, 27]: 0 |
| Cc1cc(-c2ccc(Cl)cc2)nn1-c1c(OS(C)(=O)=O)cnn(C)c1=O [Compound 36] | 0 | – | – | – | – | – | – | 70 | – | – | – | – | – | – | 95 | 40 | 100 | – | 100 | 100 | Plant response rating, Johnsongrass [1, 32]: 50; Plant response rating, Johnsongrass [1, 29]: 100; Johnsongrass plant response rating [1, 27]: 0; Plant response rating, Surinam Grass [2, 32]: 85; Plant response rating, Surinam Grass [2, 29]: 100; Plant response rating, Surinam Grass ([2]; Preemergence, 16 g ai/ha, scale 0 to 100 (0 no effect, 100 complete control)): 100; Surinam Grass plant response rating [2, 27]: 70 |
| Cc1cc(-c2ccc(C(F)(F)F)cc2)nn1-c1c(OC(=O)C(C)(C)C)cnn(C)c1=O [Compound 2] | – | – | – | – | – | – | – | – | – | – | – | – | – | – | – | – | 80 | 80 | 85 | 85 | Plant response rating, Surinam Grass [2, 24]: 100 |
